Data: patent US5143927A, “3-(thiazolidone, oxazolidinone, imidazolidinone)-indoles as antiinflammatory agents” (Warner-Lambert Company, priority 1991, dated 1992)
Where two headings read alike, the source gives them in different places.

Experiments:
5-lipoxygenase = target: T1, 5-lipoxygenase (Rattus norvegicus, UniProt P12527); assay: ARBL whole cell 5-lipoxygenase assay (inhibition of LTB4 formation in RBL-1 cells); assay type: cell-based; settings: for IC50: A23187 (5 μM) stimulated, LTB4 formation; for inhibition at 10 µM: A23187 stimulated
T1 construct: endogenous in cells; host or cells: RBL-1 (rat basophilic leukemia cells, from the American Type Culture Collection)
T1 sequence (P12527 1-673): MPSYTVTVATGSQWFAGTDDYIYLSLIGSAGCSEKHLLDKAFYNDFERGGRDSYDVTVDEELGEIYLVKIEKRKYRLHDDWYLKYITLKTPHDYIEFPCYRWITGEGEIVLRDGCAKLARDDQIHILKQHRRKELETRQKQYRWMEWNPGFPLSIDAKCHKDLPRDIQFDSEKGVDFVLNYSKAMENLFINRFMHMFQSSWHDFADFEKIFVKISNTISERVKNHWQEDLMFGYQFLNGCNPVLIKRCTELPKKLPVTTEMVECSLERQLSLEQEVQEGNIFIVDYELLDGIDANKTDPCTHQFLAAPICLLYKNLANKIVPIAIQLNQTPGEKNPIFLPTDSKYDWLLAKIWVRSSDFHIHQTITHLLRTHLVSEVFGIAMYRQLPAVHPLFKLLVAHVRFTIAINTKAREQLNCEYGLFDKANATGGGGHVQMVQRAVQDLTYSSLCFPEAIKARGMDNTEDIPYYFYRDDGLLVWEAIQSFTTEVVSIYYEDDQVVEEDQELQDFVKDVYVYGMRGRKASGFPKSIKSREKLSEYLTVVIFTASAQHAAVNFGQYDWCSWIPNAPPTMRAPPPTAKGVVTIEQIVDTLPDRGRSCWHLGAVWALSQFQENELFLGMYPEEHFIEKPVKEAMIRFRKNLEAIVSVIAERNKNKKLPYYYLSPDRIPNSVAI
Protocol: (§1) ARBL/ARBC WHOLE CELL 5-LIPOXYGENASE AND CYCLOOXYGENASE ASSAYS
(§2) The rat basophilic leukemia cell line (RBL-1) was obtained from the American Type Culture Collection (Rockville, Md.).
(§3) Radioimmunoassay (RIA) kits of LTB4 and PGF2α were obtained from Amersham (Arlington Heights, Ill.) and Seragen (Boston, Mass.), respectively.
(§4) RBL-1 cells are grown in suspension culture in Eagle's minimum essential medium supplemented with 12% fetal bovine serum at 37° C. in an incubator supplied with air 5% carbon dioxide. Cells are harvested by centrifugation. They are washed with cold phosphate buffered saline, pH 7.4 (PBS; NaCl, 7.1 g; Na2 HPO4, 1.15 g; KH2 PO4, 0.2 g; and KCl, 0.2 g/L). Cells are finally suspended in PBS containing 1.0 mM calcium at a density of 2×10^6 cells/mL. Cells are incubated […] test agent (in DMSO) (1% DMSO is without effect on arachidonic acid metabolism) for 10 minutes at room temperature. Calcium ionophore A23187 (5 μM) is added and cells are incubated for 7 minutes at 37° C. The reaction is stopped by chilling the tubes on ice for 10 minutes. Cells are separated by centrifugation and the supernatant is stored at -20° C. Aliquots (100 μL) are analyzed for LTB4 and PGF2α using radioimmunoassay kits as provided by the supplier.
(§5) Table 1 contains biochemical data for compounds of formula I obtained from this whole cell assay as amount of inhibition at 10 μM or IC50 s which are calculated as the concentration of a test compound in micromoles (μM) causing 50% inhibition of LTB4 or PGF2α formation.

cyclooxygenase = target: T2, cyclooxygenase (Rattus norvegicus, UniProt Q63921); assay: ARBC whole cell cyclooxygenase assay (inhibition of PGF2α formation in RBL-1 cells); assay type: cell-based; settings: for IC50: A23187 (5 μM) stimulated, PGF2α formation, read-out: ARBC, inhibition of PGF2, IC50; for inhibition at 10 µM: A23187 stimulated, read-out: ARBC, inhibition of PGF2
T2 construct: endogenous in cells; host or cells: RBL-1 (rat basophilic leukemia cells, from the American Type Culture Collection)
T2 sequence (Q63921 27-602): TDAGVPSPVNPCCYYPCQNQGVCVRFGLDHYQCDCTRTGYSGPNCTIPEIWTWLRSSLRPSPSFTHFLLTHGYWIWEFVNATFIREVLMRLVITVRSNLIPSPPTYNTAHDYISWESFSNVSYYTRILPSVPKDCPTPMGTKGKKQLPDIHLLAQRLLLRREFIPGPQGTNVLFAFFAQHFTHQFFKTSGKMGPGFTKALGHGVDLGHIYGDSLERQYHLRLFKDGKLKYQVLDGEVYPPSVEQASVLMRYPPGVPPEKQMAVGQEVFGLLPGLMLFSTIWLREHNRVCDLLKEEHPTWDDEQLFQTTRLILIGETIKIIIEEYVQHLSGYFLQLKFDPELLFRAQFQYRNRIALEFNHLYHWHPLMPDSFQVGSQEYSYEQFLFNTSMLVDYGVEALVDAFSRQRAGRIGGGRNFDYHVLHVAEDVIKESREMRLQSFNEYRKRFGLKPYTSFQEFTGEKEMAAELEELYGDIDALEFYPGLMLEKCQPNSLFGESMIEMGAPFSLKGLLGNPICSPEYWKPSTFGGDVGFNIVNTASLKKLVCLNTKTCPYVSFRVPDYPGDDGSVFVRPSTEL
Protocol: as §1, §2, §3, §4, §5

Row | IC50 (5-lipoxygenase) | IC50 (cyclooxygenase) | inhibition at 10 µM (cyclooxygenase; class symbol, 10 μM) | inhibition at 10 µM (5-lipoxygenase; inhibition at 10 μM) | SMILES | also measured
1 | 8.23 µM | 0.29 µM |  |  | COc1ccc2[nH]c(C)c(/C=C3\SC(SC)=NC3=O)c2c1 [Example 1, (Z) -5-[(5 -Methoxy-2-methyl-1H -indol-3-yl)methylene]-2-(methylthio)-4(5H)-thiazolone] | 
2 |  |  | < 40% |  | COc1ccc2[nH]c(C)c(/C=C3\SC(NC#N)=NC3=O)c2c1 [Example 2, (Z)-[4,5-Dihydro-5-[(5-methoxy-2-methyl-1H-indol-3-yl)methylene]-4-oxo-2-thiazolyl]-cyanamide] | inhibition at 10 µM (5-lipoxygenase; class symbol, 10 μM): < 40%
3 | 4.43 µM | 0.14 µM |  |  | CSC1=NC(=O)/C(=C/c2c(C)[nH]c3ccccc23)S1 [Example 3, (Z) -5-[(2-Methyl-1H-indol-3-yl)methylene]-2-(methylthio)-4(5H)-thiazolone] | 
4 |  |  |  | 90% | COc1ccc2c(c1)c(/C=C1\SC(=S)N(CC(=O)O)C1=O)c(C)n2C(=O)c1ccc(Cl)cc1 [Example 4, (Z)-5-[[1-(4-Chlorobenzoyl)-5-methoxy-2-methyl-1H-indol-3-yl]methylene]-4-oxo-2-thioxo-3-thiazolidine acetic acid] | inhibition at 10 µM (cyclooxygenase; inhibition at 10 μM): 60%
5 |  |  | < 40% | 48% | COc1ccc2c(c1)c(/C=C1\SC(N)=NC1=O)c(C)n2C(=O)c1ccc(Cl)cc1 [Example 5, (Z)-5-[[1-(4-Chlorobenzoyl)-5-methoxy-2-methyl-1H-indol-3-yl]methylene]-2-imino-4-thiazolidinone] | 
